The source of these data is US20040072770A1, “Methods for specifically inhibiting histone deacetylase-7 and 8” (priority 2002, published 2004).

Assay [1] concerns lung cancer cells H446. In words: MTT assay, H446. The settings on record: Homo sapiens, NCI-H446; 72 hours; read-out: MTT IC50 H 446. Type of assay: cell-based. As to the method:
(§1) Effects of HDAC isotype-specific small molecule inhibitors on growth inhibition of various human cancer cells (from ATCC) in vitro were determined by MTT assays. Briefly, cells seeded in 96-well plates were incubated for 72 hours at 37° C. in a 5% CO2 incubator. MTT (Sigma) was added at a final concentration of 0.5 mg/ml and incubated with the cells for 4 hours before an equal volume of solubilization buffer (50% N,N-dimethylformamide, 20% SDS, pH 4.7) was added onto cultured cells. After overnight incubation, solubilized dye was quantified by colorimetric reading at […] using a reference at 630 nM. OD values were converted to cell numbers according to a standard growth curve of the relevant cell line. The concentration which reduces cell numbers to 50% of those of DMSO-treated cells is determined as MTT IC50. In Table 4, IC50s of several HDAC7 or HDAC8 inhibitors in MTT assays in various human cancer cell lines were listed. They include colon cancer cells HCT116 and SW48, lung cancer cells A549 and H446, breast cancer cells MCF-7 and MDAmb231, a prostate cancer cell line Du145 and a bladder cancer cell line T24.

In assay [2] the test system is breast cancer cells MDAmb231. In words: MTT assay, MDAmb231. The format is cell-based. To be noted: Homo sapiens, MDA-MB-231; 72 hours. As to the method: as §1
In general terms: Formazan colour is commonly taken as a measure of viable cells.

The subject of assay [3] is lung cancer cells A549. In words: MTT assay, A549. The format is cell-based. The settings on record: Homo sapiens, 72 hours, read-out: IC50 A 549 (MTT). As to the method: as §1
Assay [4] deals with breast cancer cells MCF-7. Kind of assay: MTT assay, MCF-7. The format is cell-based. To be noted: Homo sapiens, MCF7; 72 hours. As to the method:
as §1

In assay [5] the target is T1, HDAC-7 (Homo sapiens, UniProt Q8WUI4).
T1 sequence (Q8WUI4 1-952): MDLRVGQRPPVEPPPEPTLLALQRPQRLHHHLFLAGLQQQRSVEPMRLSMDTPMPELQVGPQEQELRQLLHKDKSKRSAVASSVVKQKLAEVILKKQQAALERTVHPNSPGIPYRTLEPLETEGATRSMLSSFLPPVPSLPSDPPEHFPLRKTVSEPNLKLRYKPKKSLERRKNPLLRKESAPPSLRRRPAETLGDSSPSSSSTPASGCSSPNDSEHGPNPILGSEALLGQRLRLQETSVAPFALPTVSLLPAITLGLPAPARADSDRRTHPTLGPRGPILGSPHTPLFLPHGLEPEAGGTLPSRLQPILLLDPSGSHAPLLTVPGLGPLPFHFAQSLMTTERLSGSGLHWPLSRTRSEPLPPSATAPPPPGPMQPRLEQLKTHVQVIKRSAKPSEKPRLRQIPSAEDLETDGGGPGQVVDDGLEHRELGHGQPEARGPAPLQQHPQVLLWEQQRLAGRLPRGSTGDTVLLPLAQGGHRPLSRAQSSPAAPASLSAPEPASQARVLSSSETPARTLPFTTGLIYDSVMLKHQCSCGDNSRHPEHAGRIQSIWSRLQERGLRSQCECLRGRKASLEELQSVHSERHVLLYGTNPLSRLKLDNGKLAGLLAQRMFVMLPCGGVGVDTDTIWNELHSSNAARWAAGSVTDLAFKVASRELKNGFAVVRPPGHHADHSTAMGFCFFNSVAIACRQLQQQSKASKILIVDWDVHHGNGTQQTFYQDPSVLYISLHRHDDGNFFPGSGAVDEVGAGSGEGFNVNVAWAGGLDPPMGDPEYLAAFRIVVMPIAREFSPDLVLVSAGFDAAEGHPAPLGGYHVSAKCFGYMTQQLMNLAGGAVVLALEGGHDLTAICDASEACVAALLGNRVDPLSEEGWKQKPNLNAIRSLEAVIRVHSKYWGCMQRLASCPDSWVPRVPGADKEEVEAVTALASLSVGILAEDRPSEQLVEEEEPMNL
Kind of assay: Enzyme inhibitory activity, HD7. The format is biochemical. To be noted: read-out: IC50 HD 7.

Assay [6] deals with colon carcinoma cells HCT116 tumors. Kind of assay: Tumor growth in a mouse model, HCT116. The settings on record: intraperitoneal, BALB/c nude mice, vs vehicle-treated. Type of assay: in vivo. As to the method:
Female BALB/c nude mice are obtained from Charles River Laboratories (Charles River, N.Y.) and used at age 8-10 weeks. Human tumor cells (2×10^6, colon carcinoma cells HCT116 or SW48, lung carcinoma cells A549, pancreatic carcinoma Panc-1, ovarian carcinoma cells ES2, or prostate carcinoma cells Du145) are injected subcutaneously in the animal's flank and allowed to form solid tumors. Tumor fragments are serially passaged a minimum of three times, then approximately 30 mg tumor fragments are implanted subcutaneously through a small surgical incision under general anaesthesia. Small molecule inhibitor administration by intraperotineal or oral administration was initiated when the tumors reached a volume of 100 mm^3. For intraperotineal administration, small molecule inhibitors of HDAC-7, HDAC-8 or both, or in combination with small molecule inhibitors of HDAC-1 (20-60 mg/kg body weight/day) are dissolved in 100% DMSO and administered daily by injection. For oral administration, small molecule inhibitors of HDAC (60 mg/kg body weight) are dissolved in saline acidified with 0.2 N HCl. Tumor volumes are monitored twice weekly up to 20 days. Each experimental group contains at least 6-8 animals. Percentage inhibition is calculated using volume of tumor from vehicle-treated mice as controls. Shown in Table 4, inhibition of HDAC7 or HDAC8 in combination with HDAC1 leads to inhibition of growth of various human tumors in vivo.

In assay [7] the test system is bladder cancer cell line T24. In words: MTT assay, T24. Type of assay: cell-based. To be noted: Homo sapiens; 72 hours; read-out: MTT IC50 T 24. The procedure: as §1
[8] abbreviates: (20,I): 20 mg/kg body weight/day.

Molecules are shown by their SMILES.

Consider `COc1ccc(-c2ccnc(NCc3ccc(C(=O)Nc4ccccc4N)cc3)n2)cc1OC` [Compound 21, N-(2-Amino-phenyl)-4-{[4-(3,4-dimethoxy-phenyl)-pyrimidin-2-ylamino]-methyl}-benzamide], for which the IC50 (as a rule, the midpoint of a concentration-inhibition curve) stood at 300 nM in assay [1]; 500 nM in assay [2]; 300 nM in assay [3]; 700 nM in assay [4]; 37 µM in assay [5].

`Cc1ccc(S(=O)(=O)Nc2ccc(/C=C/C(=O)Nc3ccccc3N)cc2)cc1` [Compound 5, N-(2-Aminophenyl)-3-[4-(4-methylbenzenesulfonylamino)-phenyl]-acrylamide]: the half-inhibitory concentration (IC50) in assay [1] turned out to be 1000 nM; in assay [2], 2000 nM; in assay [3], 8000 nM; in assay [4], 6000 nM; in assay [5], 20 µM; in assay [7], 8000 nM. Besides, the “% of Inhibition of Tumor Growth in Vivo HCT116” value (shortened to “% of Inhibition of Tumor Growth”) in assay [6] (setting [8]) is on record as 48(20,I) %; in assay [6] ((40,I): 40 mg/kg body weight/day), 55(40,I) %.

In the case of `COc1ccc(NCc2ccc(C(=O)Nc3ccccc3N)cc2)cc1OC` [Compound 17, N-(2-Aminophenyl)-4-[(3,4-dimethoxyphenylamino)-methyl]-benzamide], the IC50 is 900 nM in assay [1]; 2000 nM in assay [2]; 3000 nM in assay [3]; 3000 nM in assay [4]; 45 µM in assay [5]; 2000 nM in assay [7]. In assay [6] (setting [8]), the “% of Inhibition of Tumor Growth” value is 77(20,I) %.

Regarding `Nc1ccccc1NC(=O)c1ccc(CSc2nc3ccccc3[nH]2)cc1` [Compound 16, N-(2-Amino-phenyl)-4-(1H-benzimidazol-2-ylsulfanylmethyl)-benzamide], the IC50 in assay [1] was 1000 nM; in assay [2], 1000 nM; in assay [3], 2000 nM; in assay [4] it was 3000 nM; in assay [5] it was 38 µM; in assay [7], 1000 nM. Besides, in assay [6] (setting [8]), the “% of Inhibition of Tumor Growth” value is 61(20,I) %.
